Laboratory results from US8338431B2, “Phosphodiesterase inhibitors” (Leo Pharma A/S, priority 2007, dated 2012).
Where two headings read alike, the source gives them in different places.

What was measured:
[1] = test system: TNF-α release from human peripheral blood mononuclear cells (PBMC); experiment: TNF-α Release in LPS stimulated PBMC; format: cell-based; conditions: 30 minutes pre-incubation, stimulated 18 hours with lipopolysaccharide, TNF-α in supernatant by enzyme immunoassay
Procedure: Human peripheral blood mononuclear cells (PBMC) were isolated from buffy coats. The blood is mixed with saline at a ratio of 1:1, and the PBMC were isolated using Lymphoprep Tubes™ (Nycomed, Norway). The PBMC were suspended in RPMI1640 with 2% foetal calf serum (FCS), pen/strep and 2 mM L-glutamine at a concentration of […]. The cells were pre-incubated for 30 minutes with the test compounds in 96 well tissue culture plates and stimulated for 18 hours with lipopolysaccharide […] (Sigma). The level of TNF-α was measured in the culture supernatant by enzyme immunoassays using primary and secondary biotinylated antibodies from R&D systems. Results are expressed as IC50 values calculated from inhibition curves using as positive controls the secretion in LPS stimulated wells and as negative controls the secretion in unstimulated cells.

[2] = biological target: Human recombinant PDE4 (Genbank accession no NM—006203) (Homo sapiens, UniProt Q08499); experiment: PDE4 Assay (SPA, cleavage of cAMP); format: biochemical
Human recombinant PDE4 (Genbank accession no NM—006203), sequence (Q08499 1-673 isoform Q08499-2): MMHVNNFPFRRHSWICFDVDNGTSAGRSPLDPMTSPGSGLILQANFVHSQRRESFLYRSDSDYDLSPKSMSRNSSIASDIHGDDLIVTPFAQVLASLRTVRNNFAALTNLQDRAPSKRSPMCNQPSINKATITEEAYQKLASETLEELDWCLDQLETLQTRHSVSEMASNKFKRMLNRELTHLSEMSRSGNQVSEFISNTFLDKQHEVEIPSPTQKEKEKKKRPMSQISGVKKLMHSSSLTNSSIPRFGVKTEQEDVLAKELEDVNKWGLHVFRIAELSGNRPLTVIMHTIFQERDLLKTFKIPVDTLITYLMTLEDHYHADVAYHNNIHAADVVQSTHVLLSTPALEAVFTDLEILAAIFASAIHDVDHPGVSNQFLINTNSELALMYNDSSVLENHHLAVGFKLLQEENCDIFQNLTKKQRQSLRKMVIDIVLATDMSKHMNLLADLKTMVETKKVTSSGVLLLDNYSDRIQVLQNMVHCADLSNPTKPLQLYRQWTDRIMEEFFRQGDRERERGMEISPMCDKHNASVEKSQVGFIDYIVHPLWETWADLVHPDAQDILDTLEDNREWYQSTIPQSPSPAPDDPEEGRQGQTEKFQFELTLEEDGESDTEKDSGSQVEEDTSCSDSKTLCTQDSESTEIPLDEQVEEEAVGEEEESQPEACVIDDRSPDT
Procedure: Human recombinant PDE4 (Genbank accession no NM_006203) was incubated for 1 hour, with the test compound at concentrations up to 10 μM, with cAMP (1×10^-5M), and with a low amount (0.021 MBq) of radioactively labelled cAMP. At the end of the incubation, the cleavage of the substrate was evaluated by the binding of the AMP product to SPA beads, which generate […] when bound to the radioactive tracer. The AMP product inhibited the binding of the radioactive tracer to the beads, and the luminescent signal was competed. The results were calculated as the molar concentrations resulting in 50% inhibition of the substrate cleavage compared to controls samples, and are expressed as IC50 (M).

[3] = human recombinant PDE4, 1 hour incubation, cAMP 1×10^-5M, test compound up to 10 μM, read-out: IC50 (PDE4)

Row | SMILES | IC50 [1] | IC50 [2, 3] | IC50 [2]
1 | COc1ccc(C(=O)Cc2c(Cl)cncc2Cl)c2c1OC1(CCOCC1)O2 [Compound 101, 2-(3,5-Dichloropyridine-4-yl)-1-(7-methoxy-2′,3′,5′,6′-tetrahydro-spiro[1,3-benzodioxole-2,4′-(4H)-pyran]-4-yl)ethanone] | 0.028 µM | 0.026 µM | 
2 | COc1ccc(C(=O)Nc2c(Cl)cncc2Cl)c2c1OC1(CCOCC1)O2 [Compound 102, N-(3,5-Dichloropyridine-4-yl)-7-methoxy-2′,3′,5′,6′-tetrahydro-spiro[1,3-benzodioxole-2,4′-(4H)-pyran]-4-carboxamide] | 0.088 µM | 0.041 µM | 
3 | COc1ccc(C(=O)Cc2c(Cl)c[n+]([O-])cc2Cl)c2c1OC1(CCOCC1)O2 [Compound 103, 2-(3,5-Dichloro-1-oxido-pyridine-4-yl)-1-(7-methoxy-2′,5′,6′-tetrahydro-spiro[1,3-benzodioxole-2,4′-(4H)-pyran]-4-yl)ethanone] | 0.023 µM | 0.026 µM | 
4 | COc1ccc(C(=O)Cc2c(Cl)cncc2Cl)c2c1OC1(CCSC1)O2 (centres unmarked) [Compound 104, 2-(3,5-Dichloropyridine-4-yl)-1-(7-methoxy-4′,5′-dihydro-spiro[1,3-benzo-dioxole-2,3′-(2H)-thiophen]-4-yl)ethanone] | 0.044 µM | 0.01 µM | 
5 | COc1ccc(C(=O)Cc2c(Cl)cncc2Cl)c2c1OC1(CCNCC1)O2 [Compound 105, 2-(3,5-Dichloropyridine-4-yl)-1-(7-methoxy-spiro[1,3-benzodioxole-2,4′-piperidine]-4-yl)ethanone] | 0.8 µM |  | 0.31 µM
6 | COC(=O)N1CCC2(CC1)Oc1c(OC)ccc(C(=O)Cc3c(Cl)cncc3Cl)c1O2 [Compound 106, 2-(3,5-Dichloropyridine-4-yl)-1-(7-methoxy-1′-[methoxycarbonyl]-spiro[1,3-benzodioxole-2,4′-piperidine]-4-yl)ethanone] | 0.158 µM |  | 0.127 µM
7 | COc1ccc(C(=O)Cc2c(Cl)cncc2Cl)c2c1OC1(CCN(S(C)(=O)=O)CC1)O2 [Compound 107, 2-(3,5-Dichloropyridine-4-yl)-1-(7-methoxy-1′-[methylsulfonyl]-spiro[1,3-benzodioxole-2,4′-piperidine]-4-yl)ethanone] | 0.91 µM | 0.59 µM | 
8 | COc1ccc(C(=O)Cc2c(Cl)cncc2Cl)c2c1OC1(CCN(C(C)=O)CC1)O2 [Compound 108, 2-(3,5-Dichloropyridine-4-yl)-1-(7-methoxy-1′-acetyl-spiro[1,3-benzodioxole-2,4′-piperidine]-4-yl)ethanone] | 0.167 µM |  | 0.22 µM
9 | COc1ccc(C(=O)Cc2c(Cl)cncc2Cl)c2c1OC1(CCSCC1)O2 [Compound 110, 2-(3,5-Dichloropyridine-4-yl)-1-(7-methoxy-2′,3′,5′,6′-tetrahydro-spiro[1,3-benzodioxole-2,4′-(4H)-thiopyran]-4-yl)ethanone] | 0.017 µM | 0.011 µM | 
10 | COc1ccc(C(=O)Cc2c(Cl)cncc2Cl)c2c1OC1(CC[S+]([O-])CC1)O2 (centres unmarked) [Compound 111, 2-(3,5-Dichloropyridine-4-yl)-1-(7-methoxy-2′,3′,5′,6′-tetrahydro-spiro[1,3-benzodioxole-2,4′-(4H)-thiopyran 1′-oxide]-4-yl)ethanone] | 0.019 µM | 0.018 µM | 
11 | COc1ccc(C(=O)Cc2c(Cl)cncc2Cl)c2c1OC1(CCS(=O)(=O)CC1)O2 [Compound 112, 2-(3,5-Dichloropyridine-4-yl)-1-(7-methoxy-2′,3′,5′,6′-tetrahydro-spiro[1,3-benzodioxole-2,4′-(4H)-thiopyran-1,1′-dioxide]-4-yl)ethanone] | 0.034 µM | 0.029 µM | 
12 | COc1ccc(C(=O)Cc2c(Cl)c[n+]([O-])cc2Cl)c2c1OC1(CCS(=O)(=O)CC1)O2 [Compound 113, 2-(3,5-Dichloro-1-oxido-pyridine-4-yl)-1-(7-methoxy-2′,3′,5′,6′-tetrahydro-spiro[1,3-benzodioxole-2,4′-(4H)-thiopyran-1′,1′-dioxide]-4-yl)ethanone] | 0.082 µM | 0.053 µM | 
13 | COc1ccc(C(=O)Cc2ccncc2Br)c2c1OC1(CCSCC1)O2 [Compound 114, 2-(3-bromopyridine-4-yl)-1-(7-methoxy-2′,3′,5′,6′-tetrahydro-spiro[1,3-benzodioxole-2,4′-(4H)-thiopyran]-4-yl)ethanone] | 0.095 µM | 0.045 µM | 
14 | COc1ccc(C(=O)Cc2nccnc2Br)c2c1OC1(CCSCC1)O2 [Compound 115] | 0.471 µM | 1.41 µM | 
15 | COc1ccc(C(=O)Cc2cnccn2)c2c1OC1(CCSCC1)O2 [Compound 116, 2-(-pyrazin-2-yl)-1-(7-methoxy-2′,3′,5′,6′-tetrahydro-spiro[1,3-benzodioxole-2,4′-(4H)-thiopyran]-4-yl)ethanone] | 2.94 µM | 1.29 µM | 
16 | COc1ccc(C(=O)Cc2ccncc2)c2c1OC1(CCSCC1)O2 [Compound 117, 2-(-pyridin-4-yl-)-1-(7-methoxy-2′,3′,5′,6′-tetrahydro-spiro[1,3-benzo-dioxole-2,4′-(4H)-thiopyran]-4-yl)ethanone] | 0.286 µM | 0.207 µM | 
17 | COc1ccc(C(=O)Cc2ccnc3ccccc23)c2c1OC1(CCSCC1)O2 [Compound 118, 2-(quinolin-4-yl-)-1-(7-methoxy-2′,3′,5′,6′-tetrahydro-spiro[1,3-benzo-dioxole-2,4′-(4H)-thiopyran]-4-yl)ethanone] | 5.52 µM | 1.8 µM | 
18 | COc1ccc(C(=O)Cc2c(Cl)cccc2Cl)c2c1OC1(CCSCC1)O2 [Compound 119, 2-(2,6-Dichloro-phenyl)-1-(7-methoxy-2′,3′,5′,6′-tetrahydro-spiro[1,3-benzo-dioxole-2,4′-(4H)-thiopyran]-4-yl)ethanone] | 0.508 µM | 0.071 µM | 
19 | COc1ccc(C(=O)Cc2ccccc2Cl)c2c1OC1(CCSCC1)O2 [Compound 120, 2-(2-chloro-phenyl)-1-(7-methoxy-2′,3′,5′,6′-tetrahydro-spiro[1,3-benzo-dioxole-2,4′-(4H)-thiopyran]-4-yl)ethanone] | 1.25 µM | 0.31 µM | 
20 | COc1ccc(C(=O)Cc2c(Cl)cncc2Cl)c2c1OCC1(COC1)CO2 [Compound 121, 2-(3,5-Dichloropyridin-4-yl)-1-{9-methoxy-spiro[2H-1,5-benzodioxepin-3(4H),3′-oxetane]-6-yl}ethanone] | 0.064 µM | 0.052 µM | 
21 | COc1ccc(C(=O)Cc2c(Cl)c[n+]([O-])cc2Cl)c2c1OCC1(COC1)CO2 [Compound 122, 2-(3,5-Dichloro-1-oxido-pyridin-4-yl)-1-{9-methoxy-spiro[2H-1,5-benzodioxepin-3(4H),3′-oxetane]-6-yl}ethanone] | 0.02 µM | 0.05 µM | 
22 | COc1ccc(C(=O)Cc2c(Cl)cncc2Cl)c2c1OCC1(CO2)CSC1 [Compound 123, 2-(3,5-Dichloropyridin-4-yl)-1-{9-methoxy-spiro[2H-1,5-benzodioxepin-3(4H),3′-thietane]-6-yl}ethanone] | 0.035 µM | 0.017 µM | 
23 | COc1ccc(C(=O)Cc2c(Cl)cncc2Cl)c2c1OCC1(CO2)CS(=O)(=O)C1 [Compound 124, 2-(3,5-Dichloropyridin-4-yl)-1-{9-methoxy-spiro[2H-1,5-benzodioxepin-3(4H),3′-thietane-1′,1′-dioxide]-6-yl}ethanone] | 0.135 µM | 0.104 µM | 
24 | COc1ccc(C(=O)Cc2c(Cl)c[n+]([O-])cc2Cl)c2c1OCC1(CO2)CS(=O)(=O)C1 [Compound 125, 2-(3,5-Dichloropyridin-1-oxido-4-yl)-1-{9-methoxy-spiro[2H-1,5-benzodioxepin-3(4H),3′-thietane-1′,1′-dioxide]-6-yl}ethanone] | 0.135 µM | 0.2 µM | 
25 | COc1ccc(C(=O)Cc2c(Cl)cncc2Cl)c2c1OCC1(CO2)OCCO1 [Compound 126, 2-(3,5-Dichloropyridin-4-yl)-1-{9-methoxy-spiro[2H-1,5-benzodioxepin-3(4H),2′-(1,3-dioxolane)]-6-yl}ethanone] | 0.111 µM | 0.067 µM | 
26 | COc1ccc(C(=O)Cc2c(Cl)cncc2Cl)c2c1OCC1(CCOCC1)CO2 [Compound 127, 2-(3,5-Dichloropyridin-4-yl)-1-{9-methoxy-spiro[2H-1,5-benzodioxepin-3(4H),4′-tetrahydropyran]-6-yl}ethanone] | 0.027 µM | 0.022 µM | 
27 | COc1ccc(C(=O)Cc2c(Cl)c[n+]([O-])cc2Cl)c2c1OCC1(CCOCC1)CO2 [Compound 128, 2-(3,5-Dichloro-1-oxido-pyridin-4-yl)-1-{9-methoxy-spiro[2H-1,5-benzodioxepin-3(4H),4′-tetrahydropyran]-6-yl}ethanone] | 0.009 µM | 0.011 µM | 
28 | COc1ccc(C(=O)Cc2c(Cl)cncc2Cl)c2c1OCC1(COCOC1)CO2 [Compound 130, 2-(3,5-Dichloropyridin-4-yl)-1-{9-methoxy-spiro[2H-1,5-benzodioxepin-3(4H),5′-[1,3]dioxane]-6-yl}ethanone] | 0.05 µM | 0.04 µM | 
